Values joined by “and” are separate entries in the source; they are usually repeats but may differ in a detail not shown here. Equal entries are not always repeated.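 Briefly, cells in 96-well plates were exposed to five compound concentrations for 48 h, and endpoints were estimated by linear interpolation. GI50 is the concentration that inhibits growth by half. TGI: total growth inhibition.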
What was measured:
Assay in all cases: NCI-60 cell line screen, 48 h
[1] = system: COLO 205 colon
[2] = system: SNB-75 CNS
[3] = system: KM12 colon
[4] = system: U251 CNS
[5] = system: SF-295 CNS
[6] = system: NCI-H23 lung
[7] = system: MOLT-4 leukemia
[8] = system: HCT-15 colon
[9] = system: OVCAR-5 ovarian

Compound | TGI [1] | TGI [2] | TGI [3] | TGI [4] | TGI [5] | TGI [6] | TGI [7] | TGI [8] | TGI [9] | GI50 [1] | GI50 [2] | GI50 [3] | GI50 [9] | GI50 [4] | GI50 [5] | GI50 [6] | GI50 [7] | GI50 [8]
CS/C(=N\C(=S)N(C)C)N(c1ccccc1)c1nc(=[N+](C)C)ss1 | 7.04 µM | 19.1 µM | 15.8 µM | 20 µM | 57.4 µM | 51.7 µM | 18.3 µM | > 100 µM |  |  |  |  |  |  |  |  |  | 
COc1ccc(C2CC(=O)c3c(O)cc(O)cc3O2)cc1O (stereo not given) | > 100 µM | > 100 µM | > 100 µM | > 100 µM | > 100 µM | > 100 µM | > 100 µM | > 100 µM | > 100 µM |  |  |  |  |  |  |  |  | 
CC(=O)N[C@@H](Cc1ccc(OP(=O)(O)O)cc1)C(=O)N[C@H]1CCC(=O)N2CCC[C@@H](C(=O)NCc3ccc(Cl)cc3)N2C1=O | > 25 µM | > 25 µM | > 25 µM | > 25 µM | > 25 µM | > 25 µM | > 25 µM | > 25 µM | > 25 µM | > 25 µM | > 25 µM | > 25 µM | > 25 µM | > 25 µM | > 25 µM | > 25 µM | > 25 µM | > 25 µM
CCN1CCN(Cc2ccc(-c3cc4c(N[C@H](C)c5ccccc5)ncnc4[nH]3)cc2)CC1 | 3.6 µM and 3.52 µM | 9.56 µM and 8.12 µM | 14.4 µM and > 10 µM | 5.06 µM and > 10 µM | 4.2 µM and > 10 µM | 33.3 µM and > 10 µM | 9.35 µM and > 10 µM | 17.9 µM and > 10 µM | 23.9 µM and > 10 µM | 1.9 µM and 1.73 µM | 1.48 µM and 1.88 µM | 3.84 µM and 3.5 µM | 0.708 µM and 1.61 µM | 1.84 µM and 2.85 µM | 1.62 µM and 3.09 µM | 7.39 µM and > 10 µM | 2.62 µM and 2.39 µM | 2.56 µM and 2.39 µM
CCCCON(OC(=O)c1ccccc1)C(=O)c1ccccc1 | > 100 µM | > 100 µM | > 100 µM | > 100 µM | > 100 µM | > 100 µM | > 100 µM | > 100 µM | > 100 µM | > 100 µM | > 100 µM | > 100 µM | > 100 µM | > 100 µM | > 100 µM | > 100 µM | 53.1 µM | > 100 µM
CN(C)c1ccc2c(=O)c3ccccc3oc2n1 | > 100 µM | > 100 µM | > 100 µM |  | > 100 µM | > 100 µM | > 100 µM | > 100 µM | > 100 µM |  |  |  |  |  |  |  |  | 
COc1ccccc1NC(=O)c1sc2nc3c(cc2c1N)C(=O)CCC3 | > 100 µM | 9.42 µM |  | > 100 µM | > 100 µM | > 100 µM | > 100 µM |  |  | 2.03 µM | 2.36 µM |  |  | 4.64 µM | 1.75 µM | 16.8 µM | > 100 µM | 
Clc1ccc(CSC(Cn2ccnc2)c2ccc(Cl)cc2Cl)cc1 (stereo not given) | 2.83 µM | 8.04 µM | 3.3 µM | 2.68 µM | 2.89 µM | 3.6 µM | 4.87 µM | 3.76 µM | 6.84 µM | 1.5 µM | 2.13 µM | 1.66 µM | 2.13 µM | 1.39 µM | 1.37 µM | 1.5 µM | 1.72 µM | 1.68 µM
CC12CCC3C(CCC4Cc5[nH]c6ccccc6c5CC43C)C1CCC2O (stereo not given) | 6.78 µM | > 100 µM | 8.61 µM | > 48 µM | 3.26 µM | > 24.8 µM | > 100 µM | > 100 µM | > 100 µM | 2.76 µM | 0.574 µM | 2.8 µM | > 100 µM | 0.646 µM | 0.3 µM | 1.81 µM | 2.55 µM | 0.695 µM
NC(=O)NNCc1ccccc1 | > 100 µM |  | > 100 µM | > 100 µM | > 100 µM | > 100 µM | > 100 µM | > 100 µM | > 100 µM |  |  |  |  |  |  |  |  | 
COc1cc2c(cc1O)CC[C@@H]1[C@@H]2CC[C@]2(C)[C@@H](NCCN(C)C)CC[C@@H]12 | 0.4 µM | 0.378 µM |  | 0.458 µM | 0.61 µM | 0.636 µM | 0.695 µM | 0.454 µM | 0.856 µM | 0.107 µM | 0.0613 µM |  | 0.314 µM | 0.135 µM | 0.163 µM | 0.161 µM | 0.187 µM | 0.111 µM
COc1ccc(C(=O)c2cc(OC)c(OC)c(OC)c2)cc1 | 3.69 µM | 0.988 µM | > 33.1 µM | 9.74 µM | 0.196 µM | > 100 µM | 20.2 µM |  | > 100 µM |  |  |  |  |  |  |  |  | 
CCOc1ccccc1NC(=O)CC1C(=O)Nc2ccccc2S1=O (stereo not given) |  | > 100 µM |  | > 100 µM | > 100 µM | > 100 µM | 39.5 µM | > 100 µM | > 100 µM |  |  |  |  |  |  |  |  | 
CCCCCCCCCCCCNC(C)=O | 31.6 µM | 55.8 µM | 35.7 µM | 30.1 µM | 34.4 µM | 29.9 µM |  | 33.1 µM |  |  |  |  |  |  |  |  |  | 
Cc1ccc(S(=O)(=O)OC2CCN(C)CC2)cc1 | 42.3 µM | > 100 µM |  | > 100 µM | > 100 µM | > 100 µM | 36.6 µM | > 100 µM | > 100 µM |  |  |  |  |  |  |  |  | 
N#Cc1ccccc1NC(=O)/C(=N\N)C(C(=O)c1ccncc1)C1OC(=O)c2ccccc21 (stereo not given) | > 100 µM |  | > 100 µM | > 100 µM | > 100 µM | > 100 µM | > 100 µM | > 100 µM | > 100 µM |  |  |  |  |  |  |  |  | 
CC(C)/C=C1\CCC(CN2CCCC2)C1=O (stereo not given) | 18.1 µM |  | 23.1 µM | 21 µM | > 94.5 µM | 33.8 µM | 14.9 µM | 18.3 µM | 35.2 µM |  |  |  |  |  |  |  |  | 
COc1ccc(C2CC(c3cc(OC)c(OC)c(OC)c3)=NO2)cc1OCCCCOc1cc2c(cc1OC)C(=O)N1CCC[C@H]1C=N2 (stereo not given in full) | 4.04 µM | 3.29 µM | 3.32 µM | 3.61 µM |  | 3.5 µM | 4.61 µM | 5.54 µM | 8.34 µM | 1.96 µM | 1.71 µM | 1.74 µM | 3.13 µM | 1.73 µM |  | 1.83 µM | 1.85 µM | 2.27 µM
O=[N+]([O-])c1ccc(S(=O)(=O)Cc2ccccc2)c([N+](=O)[O-])c1 | 3.26 µM | 21.2 µM | 23.7 µM | 4.91 µM | 33.6 µM | 3.52 µM |  | 3.94 µM | 27.3 µM |  |  |  |  |  |  |  |  | 
Cc1ccc2c(c1)C(C)Cc1c(ncnc1-n1cnc3ccccc31)N2C (stereo not given) | 0.818 µM | 20.1 µM | 16.6 µM | 15.9 µM | 11.8 µM | 18 µM | 15 µM | 12.7 µM |  | 0.285 µM | 0.3 µM | 0.434 µM |  | 0.415 µM | 0.189 µM | 0.727 µM | 0.426 µM | 0.414 µM
COc1cc(C2c3[nH]c4ccccc4c3C[C@H]3COC(=O)N23)cc(OC)c1OC (stereo not given in full) | 0.287 µM and 0.0434 µM | > 100 µM | 1.68 µM | > 100 µM |  |  |  | 6.72 µM and 1.39 µM |  | < 0.01 µM | < 0.01 µM |  |  | < 0.01 µM |  | < 0.01 µM | < 0.01 µM | < 0.01 µM
O=C1c2ccccc2-c2c1c1ccccc1c(=O)n2CCCCNCCCn1c2c(c3ccccc3c1=O)C(=O)c1ccccc1-2 | 12.7 µM | 28.3 µM | 2.45 µM |  | 2.33 µM | 2.53 µM | 0.452 µM | 0.624 µM | 1.54 µM | 1.51 µM | 6.45 µM | 0.31 µM | 0.676 µM |  | 0.27 µM | 0.461 µM | 0.016 µM | 0.143 µM
Cc1c(N2CCCC2)cc2c(c1NC(=O)c1ccccc1Cl)C(C)(C)CC2(C)C | 35.2 µM | 28.9 µM | 30.3 µM | 27.6 µM | 26.8 µM | 28.5 µM |  | 28.3 µM | 32.2 µM |  |  |  |  |  |  |  |  | 
OC(c1cccc(-n2ccc(C(F)(F)F)n2)c1)c1cnccc1NC1CCCCCC1 (stereo not given) |  | 2.67 µM | 3.54 µM | 3.24 µM | 3.2 µM | 3.2 µM | 4.83 µM | 3.1 µM | 3.01 µM |  | 1.36 µM | 1.87 µM | 1.64 µM | 1.66 µM | 1.79 µM | 1.74 µM | 2.16 µM | 1.6 µM
N=C(N)c1ccc(OCc2cccc(COc3ccc(C(=N)N)cc3)c2)cc1 | 40.3 µM | 31.2 µM |  | 17.2 µM | 9.35 µM | 27.9 µM | 45.4 µM | > 100 µM | > 100 µM | 15.1 µM | 11.3 µM |  | 29.1 µM | 3.73 µM | 2.82 µM | 8.59 µM | 16.3 µM | 17.8 µM
CN1N=CSC12C(=O)N(c1ccc(Cl)cc1)C(=O)N2c1ccc(Cl)cc1 (stereo not given) | 3.38 µM | 16.5 µM | 30.3 µM | 53.6 µM | 9.16 µM | 5.14 µM | 12.3 µM |  |  |  |  |  |  |  |  |  |  | 
Cc1nc(-c2cccc(Nc3nc(-c4ccc(Cl)cc4)cs3)c2)cs1 | 31.1 µM |  | 20 µM | 16.4 µM | 28.5 µM | 10.9 µM | > 50 µM | 18.6 µM |  | 11.9 µM |  | 8.4 µM |  | 8.34 µM | 10.6 µM | 1.27 µM | 30.9 µM | 7.83 µM

— PubChem BioAssay (NCI)
